Reference: publication PMC11887370, “The universal accumulation of p-aminophenol during the microbial degradation of analgesic and antipyretic acetaminophen in WWTPs: a novel metagenomic perspective” (Microbiome, 2025)

What was measured:
Assay in all cases: UV-vis spectrophotometric hydrolysis assay, Michaelis-Menten fit
ApaA = test system: T1, ApaA; type: biochemical, Rhodococcus sp. NyZ502; settings: 100 mM phosphate buffer pH 7.4; 30 °C
T1 construct: His6-tagged, plasmid pTIP-apaA (pTIPQC1), expressed in Rhodococcus erythropolis L88, Ni-NTA purified

[1] = substrate: CC(=O)Nc1ccc([N+](=O)[O-])cc1; type: biochemical, bacterium CSBL00001; settings: 100 mM phosphate buffer pH 7.4, 30 °C
[2] = substrate: CC(=O)Nc1ccc(O)cc1; type: biochemical, bacterium CSBL00001; settings: 100 mM phosphate buffer pH 7.4, 30 °C

How did the Km (ApaA) turn out when `CC(=O)Nc1ccccc1` [acetanilide] was run?
The Km was 30.2 ± 3.86 µM.

Which Km (ApaA) does the source give for `CC(=O)Nc1ccc([N+](=O)[O-])cc1` [4-nitroacetanilide] here?
Its Km is 26.6 ± 4.21 µM.

How did the Km (ApaA) turn out when `CC(=O)Nc1ccc(O)cc1` [Acetaminophen] was run?
The Km was 8.96 µM.

B1: AAA (bacterium CSBL00001) (protein)
chain: MGKSHSPVHWKSAAEIVELVKSKQISPREVVESTIDLIEQRDPGLNAVVYKAYDEAREKAAALERRIMQGEPVGMLAGVPTLMKDLFAAKPGWPSTLGGIRALKDARGAAGVWSTYPLKMSGEDSLLLGQTNSPVYGFRGTTDNTFFGPTRNPFNLDFNAGGSSGGAAALVADGIVPVAGGTDGGGSIRIPAAWTNTYGFQPSIGRVPFKSRPNAFHPGPYLYEGPITRTVRDAALAMNVLHGFDRRDPASLRVKLDFTSALAQGVRGKKIGLTLNYGVFPVQQEIQDLIGKAARVFTELGAHVEFVDLGIPYSQKQMSDAWCRMIAIPTVASMQALRKEGIDLYGEHRADIPDALMKWIDAVADISVQQISADQLLRTTVFDCMNGVFDRFDLLLAPTLACMPVRNATDGCTEGPSQINGEEIDPLIGWCMTYLTNFSGHPSASVPAGLIDGLPAGMLIIGDRQADLDVIAASAAFERASPWSQYYDIPAGRPL
notes: His6-tagged, plasmid pET-aaa (pET-28a(+)), expressed in E. coli BL21(DE3), Ni-NTA purified
Which Km [1] does the source give for B1 here?
Its Km is 16.82 ± 5.55 µM.

And the kcat [1]?
The kcat was 5.65 ± 0.54 s⁻¹.

And the Km [2]?
The Km was 22.13 µM.
